Assay results published in the supplement of paper PMC4862054.

Test system: CAL-85-1
Assay: normalised response (% of control), CellTiter-Glo; higher = more viable cells (100 = DMSO, 0 = benzethonium chloride kill control)
Details: incubation time: 72 h
Outline: (§1)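 Breast cancer cell lines were exposed for 72 h in 384-well plates to compound at 5 concentrations, 10-fold apart, covering a 10,000-fold range fixed for each compound. Plates were read for CellTox Green fluorescence and CellTiter-Glo luminescence and normalised to 0.1 % DMSO (100) and a positive kill control (0). Each value is the normalised signal at one concentration of the series.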

Compound	normalised response
Cc1ccc(-n2nc(C(C)(C)C)cc2NC(=O)Nc2ccc(OCCN3CCOCC3)c3ccccc23)cc1 [Doramapimod] (100 nM)	92.4%
C[C@]12CC[C@@H]3c4ccc(O)cc4C[C@@H](CCCCCCCCC[S+]([O-])CCCC(F)(F)C(F)(F)F)[C@H]3[C@@H]1CC[C@@H]2O (some centres not stated) [Fulvestrant] (10 nM)	97.9%
N[C@@H](CSC(c1ccccc1)(c1ccccc1)c1ccccc1)C(=O)O [S-trityl-L-cysteine] (400 nM)	102%
CCC(C)(C)C(=O)O[C@H]1C[C@@H](C)C=C2C=C[C@H](C)[C@H](CC[C@@H]3C[C@@H](O)CC(=O)O3)[C@H]21 [Simvastatin] (100 nM)	98.9%
Cn1c(CCCC(=O)O)nc2cc(N(CCCl)CCCl)ccc21 [Bendamustine] (100 nM)	97.3%
C#Cc1cccc(Nc2ncnc3cc(OCCOC)c(OCCOC)cc23)c1 [Erlotinib] (100 nM)	100%
O=C(CCCCCCC(=O)Nc1ccc([C@H]2O[C@@H](CSc3nc(-c4ccccc4)c(-c4ccccc4)o3)C[C@@H](c3ccc(CO)cc3)O2)cc1)NO [Tubacin] (100 nM)	97.2%
CCC1(c2ccc(N)cc2)CCC(=O)NC1=O (configuration not stated) [Aminoglutethimide] (100 nM)	107%

Test system: CAL-120
Assay: normalised response (% of control), CellTox Green; higher = less cell death (100 = DMSO, 0 = benzethonium chloride kill control)
Details: incubation time: 72 h
Outline: as §1

Compound	normalised response
Cc1ccc(-n2nc(C(C)(C)C)cc2NC(=O)Nc2ccc(OCCN3CCOCC3)c3ccccc23)cc1 [Doramapimod] (100 nM)	95.8%
C[C@]12CC[C@@H]3c4ccc(O)cc4C[C@@H](CCCCCCCCC[S+]([O-])CCCC(F)(F)C(F)(F)F)[C@H]3[C@@H]1CC[C@@H]2O (some centres not stated) [Fulvestrant] (10 nM)	101%
N[C@@H](CSC(c1ccccc1)(c1ccccc1)c1ccccc1)C(=O)O [S-trityl-L-cysteine] (400 nM)	97.1%
Cn1c(CCCC(=O)O)nc2cc(N(CCCl)CCCl)ccc21 [Bendamustine] (100 nM)	97.4%
C#Cc1cccc(Nc2ncnc3cc(OCCOC)c(OCCOC)cc23)c1 [Erlotinib] (100 nM)	95.6%
O=C(CCCCCCC(=O)Nc1ccc([C@H]2O[C@@H](CSc3nc(-c4ccccc4)c(-c4ccccc4)o3)C[C@@H](c3ccc(CO)cc3)O2)cc1)NO [Tubacin] (100 nM)	105%
CCC1(c2ccc(N)cc2)CCC(=O)NC1=O (configuration not stated) [Aminoglutethimide] (100 nM)	98.6%

Test system: MDA-MB-468
Assay: as above
Details: incubation time: 72 h
Outline: as §1

Compound	normalised response
Cc1ccc(-n2nc(C(C)(C)C)cc2NC(=O)Nc2ccc(OCCN3CCOCC3)c3ccccc23)cc1 [Doramapimod] (100 nM)	89%
C[C@]12CC[C@@H]3c4ccc(O)cc4C[C@@H](CCCCCCCCC[S+]([O-])CCCC(F)(F)C(F)(F)F)[C@H]3[C@@H]1CC[C@@H]2O (some centres not stated) [Fulvestrant] (10 nM)	86.1%
N[C@@H](CSC(c1ccccc1)(c1ccccc1)c1ccccc1)C(=O)O [S-trityl-L-cysteine] (400 nM)	125%
CCC(C)(C)C(=O)O[C@H]1C[C@@H](C)C=C2C=C[C@H](C)[C@H](CC[C@@H]3C[C@@H](O)CC(=O)O3)[C@H]21 [Simvastatin] (100 nM)	94.2%
Cn1c(CCCC(=O)O)nc2cc(N(CCCl)CCCl)ccc21 [Bendamustine] (100 nM)	141%
C#Cc1cccc(Nc2ncnc3cc(OCCOC)c(OCCOC)cc23)c1 [Erlotinib] (100 nM)	118%
O=C(CCCCCCC(=O)Nc1ccc([C@H]2O[C@@H](CSc3nc(-c4ccccc4)c(-c4ccccc4)o3)C[C@@H](c3ccc(CO)cc3)O2)cc1)NO [Tubacin] (100 nM)	82.4%
CCC1(c2ccc(N)cc2)CCC(=O)NC1=O (configuration not stated) [Aminoglutethimide] (100 nM)	119%

Test system: HCC1599
Assay: as above
Details: incubation time: 72 h
Outline: as §1

Compound	normalised response
Cc1ccc(-n2nc(C(C)(C)C)cc2NC(=O)Nc2ccc(OCCN3CCOCC3)c3ccccc23)cc1 [Doramapimod] (100 nM)	97.4%
C[C@]12CC[C@@H]3c4ccc(O)cc4C[C@@H](CCCCCCCCC[S+]([O-])CCCC(F)(F)C(F)(F)F)[C@H]3[C@@H]1CC[C@@H]2O (some centres not stated) [Fulvestrant] (10 nM)	105%
N[C@@H](CSC(c1ccccc1)(c1ccccc1)c1ccccc1)C(=O)O [S-trityl-L-cysteine] (400 nM)	101%
CCC(C)(C)C(=O)O[C@H]1C[C@@H](C)C=C2C=C[C@H](C)[C@H](CC[C@@H]3C[C@@H](O)CC(=O)O3)[C@H]21 [Simvastatin] (100 nM)	95.1%
Cn1c(CCCC(=O)O)nc2cc(N(CCCl)CCCl)ccc21 [Bendamustine] (100 nM)	109%
C#Cc1cccc(Nc2ncnc3cc(OCCOC)c(OCCOC)cc23)c1 [Erlotinib] (100 nM)	104%
O=C(CCCCCCC(=O)Nc1ccc([C@H]2O[C@@H](CSc3nc(-c4ccccc4)c(-c4ccccc4)o3)C[C@@H](c3ccc(CO)cc3)O2)cc1)NO [Tubacin] (100 nM)	102%
CCC1(c2ccc(N)cc2)CCC(=O)NC1=O (configuration not stated) [Aminoglutethimide] (100 nM)	104%

Test system: MDA-MB-453
Assay: as above
Details: incubation time: 72 h
Outline: as §1

Compound	normalised response
Cc1ccc(-n2nc(C(C)(C)C)cc2NC(=O)Nc2ccc(OCCN3CCOCC3)c3ccccc23)cc1 [Doramapimod] (100 nM)	98.1%
C[C@]12CC[C@@H]3c4ccc(O)cc4C[C@@H](CCCCCCCCC[S+]([O-])CCCC(F)(F)C(F)(F)F)[C@H]3[C@@H]1CC[C@@H]2O (some centres not stated) [Fulvestrant] (10 nM)	79.4%
N[C@@H](CSC(c1ccccc1)(c1ccccc1)c1ccccc1)C(=O)O [S-trityl-L-cysteine] (400 nM)	102%
CCC(C)(C)C(=O)O[C@H]1C[C@@H](C)C=C2C=C[C@H](C)[C@H](CC[C@@H]3C[C@@H](O)CC(=O)O3)[C@H]21 [Simvastatin] (100 nM)	77.8%
Cn1c(CCCC(=O)O)nc2cc(N(CCCl)CCCl)ccc21 [Bendamustine] (100 nM)	105%
C#Cc1cccc(Nc2ncnc3cc(OCCOC)c(OCCOC)cc23)c1 [Erlotinib] (100 nM)	106%
O=C(CCCCCCC(=O)Nc1ccc([C@H]2O[C@@H](CSc3nc(-c4ccccc4)c(-c4ccccc4)o3)C[C@@H](c3ccc(CO)cc3)O2)cc1)NO [Tubacin] (100 nM)	99.4%
CCC1(c2ccc(N)cc2)CCC(=O)NC1=O (configuration not stated) [Aminoglutethimide] (100 nM)	103%

Test system: BT-474
Assay: as above
Details: incubation time: 72 h
Outline: as §1

Compound	normalised response
Cc1ccc(-n2nc(C(C)(C)C)cc2NC(=O)Nc2ccc(OCCN3CCOCC3)c3ccccc23)cc1 [Doramapimod] (100 nM)	94.5%
C[C@]12CC[C@@H]3c4ccc(O)cc4C[C@@H](CCCCCCCCC[S+]([O-])CCCC(F)(F)C(F)(F)F)[C@H]3[C@@H]1CC[C@@H]2O (some centres not stated) [Fulvestrant] (10 nM)	99.8%
N[C@@H](CSC(c1ccccc1)(c1ccccc1)c1ccccc1)C(=O)O [S-trityl-L-cysteine] (400 nM)	94.5%
CCC(C)(C)C(=O)O[C@H]1C[C@@H](C)C=C2C=C[C@H](C)[C@H](CC[C@@H]3C[C@@H](O)CC(=O)O3)[C@H]21 [Simvastatin] (100 nM)	97.3%
Cn1c(CCCC(=O)O)nc2cc(N(CCCl)CCCl)ccc21 [Bendamustine] (100 nM)	102%
C#Cc1cccc(Nc2ncnc3cc(OCCOC)c(OCCOC)cc23)c1 [Erlotinib] (100 nM)	101%
O=C(CCCCCCC(=O)Nc1ccc([C@H]2O[C@@H](CSc3nc(-c4ccccc4)c(-c4ccccc4)o3)C[C@@H](c3ccc(CO)cc3)O2)cc1)NO [Tubacin] (100 nM)	102%
CCC1(c2ccc(N)cc2)CCC(=O)NC1=O (configuration not stated) [Aminoglutethimide] (100 nM)	101%

Test system: MDA-MB-436
Assay: as above
Details: incubation time: 72 h
Outline: as §1

Compound	normalised response
Cc1ccc(-n2nc(C(C)(C)C)cc2NC(=O)Nc2ccc(OCCN3CCOCC3)c3ccccc23)cc1 [Doramapimod] (100 nM)	98.5%
C[C@]12CC[C@@H]3c4ccc(O)cc4C[C@@H](CCCCCCCCC[S+]([O-])CCCC(F)(F)C(F)(F)F)[C@H]3[C@@H]1CC[C@@H]2O (some centres not stated) [Fulvestrant] (10 nM)	107%
N[C@@H](CSC(c1ccccc1)(c1ccccc1)c1ccccc1)C(=O)O [S-trityl-L-cysteine] (400 nM)	72.6%
Cn1c(CCCC(=O)O)nc2cc(N(CCCl)CCCl)ccc21 [Bendamustine] (100 nM)	91.8%
C#Cc1cccc(Nc2ncnc3cc(OCCOC)c(OCCOC)cc23)c1 [Erlotinib] (100 nM)	98.9%
CCC1(c2ccc(N)cc2)CCC(=O)NC1=O (configuration not stated) [Aminoglutethimide] (100 nM)	109%

Test system: MCF-10A
Assay: as above
Details: incubation time: 72 h
Outline: as §1

Compound	normalised response
Cc1ccc(-n2nc(C(C)(C)C)cc2NC(=O)Nc2ccc(OCCN3CCOCC3)c3ccccc23)cc1 [Doramapimod] (100 nM)	93.5%
C[C@]12CC[C@@H]3c4ccc(O)cc4C[C@@H](CCCCCCCCC[S+]([O-])CCCC(F)(F)C(F)(F)F)[C@H]3[C@@H]1CC[C@@H]2O (some centres not stated) [Fulvestrant] (10 nM)	104%
N[C@@H](CSC(c1ccccc1)(c1ccccc1)c1ccccc1)C(=O)O [S-trityl-L-cysteine] (400 nM)	109%
CCC(C)(C)C(=O)O[C@H]1C[C@@H](C)C=C2C=C[C@H](C)[C@H](CC[C@@H]3C[C@@H](O)CC(=O)O3)[C@H]21 [Simvastatin] (100 nM)	107%
Cn1c(CCCC(=O)O)nc2cc(N(CCCl)CCCl)ccc21 [Bendamustine] (100 nM)	73.5%
C#Cc1cccc(Nc2ncnc3cc(OCCOC)c(OCCOC)cc23)c1 [Erlotinib] (100 nM)	85.9%
O=C(CCCCCCC(=O)Nc1ccc([C@H]2O[C@@H](CSc3nc(-c4ccccc4)c(-c4ccccc4)o3)C[C@@H](c3ccc(CO)cc3)O2)cc1)NO [Tubacin] (100 nM)	104%
CCC1(c2ccc(N)cc2)CCC(=O)NC1=O (configuration not stated) [Aminoglutethimide] (100 nM)	99.1%

Test system: HCC1143
Assay: as above
Details: incubation time: 72 h
Outline: as §1

Compound	normalised response
Cc1ccc(-n2nc(C(C)(C)C)cc2NC(=O)Nc2ccc(OCCN3CCOCC3)c3ccccc23)cc1 [Doramapimod] (100 nM)	104%
C[C@]12CC[C@@H]3c4ccc(O)cc4C[C@@H](CCCCCCCCC[S+]([O-])CCCC(F)(F)C(F)(F)F)[C@H]3[C@@H]1CC[C@@H]2O (some centres not stated) [Fulvestrant] (10 nM)	107%
N[C@@H](CSC(c1ccccc1)(c1ccccc1)c1ccccc1)C(=O)O [S-trityl-L-cysteine] (400 nM)	111%
CCC(C)(C)C(=O)O[C@H]1C[C@@H](C)C=C2C=C[C@H](C)[C@H](CC[C@@H]3C[C@@H](O)CC(=O)O3)[C@H]21 [Simvastatin] (100 nM)	91%
Cn1c(CCCC(=O)O)nc2cc(N(CCCl)CCCl)ccc21 [Bendamustine] (100 nM)	110%
C#Cc1cccc(Nc2ncnc3cc(OCCOC)c(OCCOC)cc23)c1 [Erlotinib] (100 nM)	114%
O=C(CCCCCCC(=O)Nc1ccc([C@H]2O[C@@H](CSc3nc(-c4ccccc4)c(-c4ccccc4)o3)C[C@@H](c3ccc(CO)cc3)O2)cc1)NO [Tubacin] (100 nM)	99%
CCC1(c2ccc(N)cc2)CCC(=O)NC1=O (configuration not stated) [Aminoglutethimide] (100 nM)	96.9%

Test system: HCC1937
Assay: as above
Details: incubation time: 72 h
Outline: as §1

Compound	normalised response
Cc1ccc(-n2nc(C(C)(C)C)cc2NC(=O)Nc2ccc(OCCN3CCOCC3)c3ccccc23)cc1 [Doramapimod] (100 nM)	97%
C[C@]12CC[C@@H]3c4ccc(O)cc4C[C@@H](CCCCCCCCC[S+]([O-])CCCC(F)(F)C(F)(F)F)[C@H]3[C@@H]1CC[C@@H]2O (some centres not stated) [Fulvestrant] (10 nM)	121%
N[C@@H](CSC(c1ccccc1)(c1ccccc1)c1ccccc1)C(=O)O [S-trityl-L-cysteine] (400 nM)	61.4%
